pIC50: −log10 of the molar value.

These results are taken from BindingDB's records for doi:10.1016/j.bmcl.2015.11.049 (Genomics Institute of The Novartis Research Foundation, 2016).

One experiment is described as follows: Inhibition of PDK1 (unknown origin).
For orientation: pIC50 means the negative decadic logarithm of the IC50, by convention in mol/L. In the case of `Cc1cc(Nc2nc(Nc3ccccc3S(=O)(=O)C(C)C)c3c(C)[nH]nc3n2)c(OC(C)C)cc1C1CCN(C)CC1` [US8592432, 34], the pIC50 is less than 5.00.

The nature of the next experiment: Inhibition of Tel fused InsR (unknown origin) expressed in mouse BaF3 cells assessed as reduction in cell proliferation incubated for 2 to 3 days by Bright-Glo luciferase assay.
Take `Cc1cc(Nc2nc(Nc3ccccc3S(=O)(=O)C(C)C)c3c(C)[nH]nc3n2)c(OC(C)C)cc1C1CCN(C)CC1` [US8592432, 34]: the pIC50 is 6.37.

The next experiment is described as follows: Inhibition of […] (unknown origin) expressed in mouse BaF3 cells assessed as reduction in cell proliferation incubated for 2 to 3 days by Bright-Glo luciferase assay.
As to `Cc1cc(Nc2cc(Nc3ccccc3S(=O)(=O)C(C)C)c3cc[nH]c3n2)c(OC(C)C)cc1C1CCN(C)CC1`, the pIC50 is 5.85.

For the compound `Cc1cc(Nc2nc(Nc3ccccc3S(=O)(=O)C(C)C)c3cn[nH]c3n2)c(OC(C)C)cc1C1CCNCC1`, the pIC50 was 7.48.

Consider `Cc1cc(Nc2nc(Nc3ccccc3S(=O)(=O)C(C)C)c3cc[nH]c3n2)c(OC(C)C)cc1C1CCNCC1`, for which the pIC50 was 7.33.

With `Cc1cc(Nc2nc(Nc3ccccc3S(=O)(=O)C(C)C)c3c(C)[nH]nc3n2)c(OC(C)C)cc1C1CCN(C)CC1` [US8592432, 34], the pIC50 is 7.70.

Regarding `Cc1cc(Nc2nc(Nc3ccccc3S(=O)(=O)C(C)C)c3c(N)n[nH]c3n2)c(OC(C)C)cc1C1CCN(C)CC1`, the pIC50 was 6.82.

For the compound `Cc1cc(Nc2nc(Nc3ccccc3S(=O)(=O)C(C)C)c3ccccc3n2)c(OC(C)C)cc1C1CCN(C)CC1`, the negative-log IC50 (pIC50) was 5.97.

Turning to `Cc1cc(Nc2nc(Nc3ccccc3S(=O)(=O)C(C)C)c3cn[nH]c3n2)c(OC(C)C)cc1C1CCN(C)CC1`, the pIC50 was 7.89.

In the case of `Cc1cc(Nc2nc(Nc3ccccc3S(=O)(=O)C(C)C)c3cccnc3n2)c(OC(C)C)cc1C1CCNCC1`, the pIC50 was 5.50.

As to `Cc1cc2c(Nc3ccccc3S(=O)(=O)C(C)C)nc(Nc3cc(C)c(C4CCN(C)CC4)cc3OC(C)C)nc2[nH]1`, the pIC50 is 5.89.

The next experiment can be described thus: Inhibition of […] (unknown origin) expressed in human KARPAS-299 cells assessed as reduction in cell growth.
On to `Cc1cc(Nc2cc(Nc3ccccc3S(=O)(=O)C(C)C)c3cc[nH]c3n2)c(OC(C)C)cc1C1CCN(C)CC1`, for which the pIC50 is 5.14.

As to `Cc1cc(Nc2nc(Nc3ccccc3S(=O)(=O)C(C)C)c3c(C)[nH]nc3n2)c(OC(C)C)cc1C1CCN(C)CC1` [US8592432, 34], the pIC50 is 7.59.
